Experimental data reported in patent US9346798B2, “Dihydrobenzoxazine and tetrahydroquinoxaline sodium channel inhibitors” (AMGEN INC., priority 2012, dated 2016).
pIC50: −log10 of the molar value.

Biological target: Nav 1.7 (Homo sapiens (Human), UniProt Q15858)
Test: Nav 1.7 in vitro PX assay, PatchXpress whole cell voltage clamp
Format: cell-based
Conditions: HEK 293 cells stably transfected with human Nav1.7; for pIC50: partially inactivated state (20 to 50% inactivation)
Method: Nav 1.7 In Vitro PX Assay
HEK 293 cells stably transfected with human Nav1.7 were recorded in whole cell voltage clamp mode with the PatchXpress automated electrophysiology system (Molecular Devices, LLC, Sunnyvale, Calif.). Compound effects were measured on a partially inactivated state of the sodium channel. Cells were clamped to a holding potential yielding 20 to 50% inactivation. To elicit sodium current, channels were activated by pulsing to −10 mV for 20 msec. This voltage protocol was repeated at a rate of 0.1 Hz throughout the experiment. A single concentration of test compound was applied to cells for a duration of 3 minutes. Peak sodium current was measured at the end of the compound addition period to determine percent inhibition. Three to five cells were tested per concentration, and IC50 curves were fitted to percent inhibition as a function of concentration.

Sequence of Nav 1.7 (Q15858 whole entry): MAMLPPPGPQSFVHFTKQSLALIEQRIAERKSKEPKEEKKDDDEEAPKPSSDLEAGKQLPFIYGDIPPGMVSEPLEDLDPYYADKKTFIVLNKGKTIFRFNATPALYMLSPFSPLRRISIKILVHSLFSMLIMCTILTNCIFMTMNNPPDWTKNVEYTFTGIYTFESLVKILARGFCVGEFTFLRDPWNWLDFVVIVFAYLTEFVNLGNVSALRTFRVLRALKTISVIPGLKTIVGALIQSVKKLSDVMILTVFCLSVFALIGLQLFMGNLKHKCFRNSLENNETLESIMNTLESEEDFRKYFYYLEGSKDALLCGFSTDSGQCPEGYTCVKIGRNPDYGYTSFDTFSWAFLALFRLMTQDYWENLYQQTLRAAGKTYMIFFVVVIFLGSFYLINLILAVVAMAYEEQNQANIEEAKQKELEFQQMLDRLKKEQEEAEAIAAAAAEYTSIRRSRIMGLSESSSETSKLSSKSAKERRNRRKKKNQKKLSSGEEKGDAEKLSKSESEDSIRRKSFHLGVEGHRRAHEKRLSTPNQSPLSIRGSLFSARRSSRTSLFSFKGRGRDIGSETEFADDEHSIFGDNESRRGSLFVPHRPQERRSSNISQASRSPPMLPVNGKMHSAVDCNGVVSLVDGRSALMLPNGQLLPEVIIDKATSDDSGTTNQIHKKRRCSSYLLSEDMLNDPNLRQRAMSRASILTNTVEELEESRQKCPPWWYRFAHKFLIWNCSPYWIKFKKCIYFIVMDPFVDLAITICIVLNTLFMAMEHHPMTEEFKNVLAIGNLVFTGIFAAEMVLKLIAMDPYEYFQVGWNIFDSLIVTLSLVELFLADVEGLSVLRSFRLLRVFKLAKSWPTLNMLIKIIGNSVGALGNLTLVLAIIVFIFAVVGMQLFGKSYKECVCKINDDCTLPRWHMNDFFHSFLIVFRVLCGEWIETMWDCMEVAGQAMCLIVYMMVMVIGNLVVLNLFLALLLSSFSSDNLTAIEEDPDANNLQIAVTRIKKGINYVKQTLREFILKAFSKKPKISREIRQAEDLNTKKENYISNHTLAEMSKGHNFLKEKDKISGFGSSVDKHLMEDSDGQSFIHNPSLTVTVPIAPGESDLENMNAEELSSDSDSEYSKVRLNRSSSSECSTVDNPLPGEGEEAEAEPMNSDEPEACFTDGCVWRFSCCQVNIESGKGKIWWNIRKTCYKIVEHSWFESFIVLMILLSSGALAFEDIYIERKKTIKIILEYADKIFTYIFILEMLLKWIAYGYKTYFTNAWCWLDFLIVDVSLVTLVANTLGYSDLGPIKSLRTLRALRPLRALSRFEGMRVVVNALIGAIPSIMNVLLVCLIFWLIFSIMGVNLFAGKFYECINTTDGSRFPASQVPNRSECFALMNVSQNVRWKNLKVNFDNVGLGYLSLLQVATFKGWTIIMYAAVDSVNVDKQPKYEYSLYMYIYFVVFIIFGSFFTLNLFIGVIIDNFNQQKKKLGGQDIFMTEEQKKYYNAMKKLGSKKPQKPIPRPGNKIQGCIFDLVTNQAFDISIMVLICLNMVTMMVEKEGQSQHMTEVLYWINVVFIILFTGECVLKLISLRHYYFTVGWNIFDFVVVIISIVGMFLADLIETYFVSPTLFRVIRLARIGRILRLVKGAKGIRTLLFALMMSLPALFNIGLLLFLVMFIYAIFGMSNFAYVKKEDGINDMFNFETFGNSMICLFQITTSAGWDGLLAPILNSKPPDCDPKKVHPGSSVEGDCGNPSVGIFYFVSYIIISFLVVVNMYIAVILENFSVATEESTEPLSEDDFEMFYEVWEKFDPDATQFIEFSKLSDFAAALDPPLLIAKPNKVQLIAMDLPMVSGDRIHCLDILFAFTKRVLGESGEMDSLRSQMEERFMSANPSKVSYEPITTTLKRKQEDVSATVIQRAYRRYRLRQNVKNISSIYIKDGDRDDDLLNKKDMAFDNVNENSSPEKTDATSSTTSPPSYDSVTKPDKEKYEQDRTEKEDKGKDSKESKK

Row | pIC50 | inhibition at 4.9 µM (HEK293, values marked *, 4.9 μM, read-out: Nav 1.7 PX percent inhibition at 4.9 μM) | SMILES
1 | 5.84 | – | N#Cc1cc(C(F)(F)F)ccc1N1C(=O)COc2cc(S(=O)(=O)Nc3nccs3)ccc21 [Example 234, 4-(2-Cyano-4-(Trifluoromethyl)Phenyl)-3-Oxo-N-(Thiazol-2-Yl)-3,4-Dihydro-2H-Benzo[B][1,4]Oxazine-7-Sulfonamide]
2 | 5.24 | – | CC(O)c1ccccc1N1C(=O)COc2cc(S(=O)(=O)Nc3nccs3)ccc21 (stereo not drawn) [Example 242, 4-(2-(1-Hydroxyethyl)Phenyl)-3-Oxo-N-(Thiazol-2-Yl)-3,4-Dihydro-2H-Benzo[B][1,4]Oxazine-7-Sulfonamide]
3 | 5.47 | – | O=C1COc2cc(S(=O)(=O)Nc3nccs3)ccc2N1c1ccc(C(F)(F)F)cc1CO [Example 262, 4-(2-(hydroxymethyl)-4-(trifluoromethyl)phenyl)-3-oxo-N-(thiazol-2-yl)-3,4-dihydro-2H-benzo[b][1,4]oxazine-7-sulfonamide]
4 | 5.62 | – | C=C(C)c1ccccc1N1CCOc2cc(S(=O)(=O)Nc3nccs3)ccc21 [Example 254, 4-(2-(prop-1-en-2-yl)phenyl)-N-(thiazol-2-yl)-3,4-dihydro-2H-benzo[b][1,4]oxazine-7-sulfonamide]
5 | 6.05 | – | COc1ccccc1N1C(=O)COc2cc(S(=O)(=O)Nc3nccs3)ccc21 [Example 235, 4-(2-Methoxyphenyl)-3-Oxo-N-(Thiazol-2-Yl)-3,4-Dihydro-2H-Benzo[B][1,4]Oxazine-7-Sulfonamide]
6 | 6.34 | – | COc1cc(C(F)(F)F)ccc1N1C(=O)C(C)Oc2cc(S(=O)(=O)Nc3nccs3)ccc21 (racemic) [Example 263, (+/−)-4-(2-methoxy-4-(trifluoromethyl)phenyl)-2-methyl-3-oxo-N-(thiazol-2-yl)-3,4-dihydro-2H-benzo[b][1,4]oxazine-7-sulfonamide]
7 | 4.47 | – | CS(=O)(=O)c1ccccc1N1CCOc2cc(S(=O)(=O)Nc3nccs3)ccc21 [Example 230, 4-(2-(Methylsulfonyl)Phenyl)-N-(Thiazol-2-Yl)-3,4-Dihydro-2H-Benzo[B][1,4]Oxazine-7-Sulfonamide]
8 | 6.14 | – | COc1cc(C(F)(F)F)ccc1N1C(=O)[C@@H](C)Oc2cc(S(=O)(=O)Nc3nccs3)ccc21 [Example 265, (R)-4-(2-Methoxy-4-(Trifluoromethyl)Phenyl)-2-Methyl-3-Oxo-N-(Thiazol-2-Yl)-3,4-Dihydro-2H-Benzo[B][1,4]Oxazine-7-Sulfonamide]
9 | 6.29 | – | COc1ccc(C(F)(F)F)cc1N1C(=O)COc2cc(S(=O)(=O)Nc3nccs3)ccc21 [Example 236, 4-(2-Methoxy-5-(Trifluoromethyl)Phenyl)-3-Oxo-N-(Thiazol-2-Yl)-3,4-Dihydro-2H-Benzo[B][1,4]Oxazine-7-Sulfonamide]
10 | 5.65 | – | NC(=O)COc1ccccc1N1CCOc2cc(S(=O)(=O)Nc3nccs3)ccc21 [Example 256, 2-(2-(7-(N-(thiazol-2-yl)sulfamoyl)-2H-benzo[b][1,4]oxazin-4(3H)-yl)phenoxy)acetamide]
11 | 6.52 | – | COc1ccc(C#N)cc1N1CCOc2cc(S(=O)(=O)Nc3nccs3)ccc21 [Example 225, 4-(5-Cyano-2-Methoxyphenyl)-N-(Thiazol-2-Yl)-3,4-Dihydro-2H-Benzo[B][1,4]Oxazine-7-Sulfonamide]
12 | 4.70 | – | O=S(=O)(Nc1nccs1)c1ccc2c(c1)OCCN2c1ccccc1-c1cncnc1 [Example 231, 4-(2-(Pyrimidin-5-Yl)Phenyl)-N-(Thiazol-2-Yl)-3,4-Dihydro-2H-Benzo[B][1,4]Oxazine-7-Sulfonamide]
13 | 6.21 | – | COc1cc(F)ccc1N1C(=O)COc2cc(S(=O)(=O)Nc3nccs3)ccc21 [Example 245, 4-(4-Fluoro-2-Methoxyphenyl)-3-Oxo-N-(Thiazol-2-Yl)-3,4-Dihydro-2H-Benzo[B][1,4]Oxazine-7-Sulfonamide]
14 | 5.44 | – | CC(C)(C#N)Oc1ccccc1N1CCOc2cc(S(=O)(=O)Nc3nccs3)ccc21 [Example 261, 4-(2-((2-cyanopropan-2-yl)oxy)phenyl)-N-(thiazol-2-yl)-3,4-dihydro-2H-benzo[b][1,4]oxazine-7-sulfonamide]
15 | 6.49 | – | COc1cc(Cl)ccc1N1C(=O)COc2cc(S(=O)(=O)Nc3nccs3)ccc21 [Example 233, 4-(4-Chloro-2-Methoxyphenyl)-3-Oxo-N-(Thiazol-2-Yl)-3,4-Dihydro-2H-Benzo[B][1,4]Oxazine-7-Sulfonamide]
16 | 6.01 | – | O=S(=O)(Nc1nccs1)c1ccc2c(c1)OCCN2c1ccccc1-c1ccc(O)nc1 [Example 255, 4-(2-(6-hydroxypyridin-3-yl)phenyl)-N-(thiazol-2-yl)-3,4-dihydro-2H-benzo[b][1,4]oxazine-7-sulfonamide 2,2,2-trifluoroacetate]
17 | 5.30 | – | NC(=O)c1ccccc1N1CCOc2cc(S(=O)(=O)Nc3nccs3)ccc21 [Example 244, 2-(7-(N-(Thiazol-2-Yl)Sulfamoyl)-2H-Benzo[B][1,4]Oxazin-4(3H)-Yl)Benzamide]
18 | – | 27% | CC(C)(O)COc1ccccc1N1CCOc2cc(S(=O)(=O)Nc3nccs3)ccc21 [Example 253, 4-(2-(2-hydroxy-2-methylpropoxy)phenyl)-N-(thiazol-2-yl)-3,4-dihydro-2H-benzo[b][1,4]oxazine-7-sulfonamide]
19 | 6.46 | – | O=C1COc2cc(S(=O)(=O)Nc3nccs3)ccc2N1c1ccc(C(F)(F)F)cc1Br [Example 239, 4-(2-Bromo-4-(Trifluoromethyl)Phenyl)-3-Oxo-N-(Thiazol-2-Yl)-3,4-Dihydro-2H-Benzo[B][1,4]Oxazine-7-Sulfonamide]
20 | 5.88 | – | CC(C)(O)c1ccccc1N1CCOc2cc(S(=O)(=O)Nc3nccs3)ccc21 [Example 258, 4-(2-(2-hydroxypropan-2-yl)phenyl)-N-(thiazol-2-yl)-3,4-dihydro-2H-benzo[b][1,4]oxazine-7-sulfonamide]
21 | 6.39 | – | Cc1cc(C(F)(F)F)ccc1N1C(=O)COc2cc(S(=O)(=O)Nc3nccs3)ccc21 [Example 247, 4-(2-Methyl-4-(Trifluoromethyl)Phenyl)-3-Oxo-N-(Thiazol-2-Yl)-3,4-Dihydro-2H-Benzo[B][1,4]Oxazine-7-Sulfonamide]
22 | 5.25 | – | COc1cc(C(F)(F)F)ccc1N1C(=O)C(C)(C)Oc2cc(S(=O)(=O)Nc3nccs3)ccc21 [Example 266, 4-(2-Methoxy-4-(Trifluoromethyl)Phenyl)-2,2-Dimethyl-3-Oxo-N-(Thiazol-2-Yl)-3,4-Dihydro-2H-Benzo[B][1,4]Oxazine-7-Sulfonamide]
23 | 6.39 | – | N#CCOc1ccccc1N1CCOc2cc(S(=O)(=O)Nc3nccs3)ccc21 [Example 257, 4-(2-(cyanomethoxy)phenyl)-N-(thiazol-2-yl)-3,4-dihydro-2H-benzo[b][1,4]oxazine-7-sulfonamide]
24 | 6.32 | – | O=C1COc2cc(S(=O)(=O)Nc3nccs3)ccc2N1c1ccc(C(F)(F)F)cc1Cl [Example 241, 4-(2-Chloro-4-(Trifluoromethyl)Phenyl)-3-Oxo-N-(Thiazol-2-Yl)-3,4-Dihydro-2H-Benzo[B][1,4]Oxazine-7-Sulfonamide]
25 | 5.80 | – | CCc1ccccc1N1CCOc2cc(S(=O)(=O)Nc3nccs3)ccc21 [Example 259, 4-(2-ethylphenyl)-N-(thiazol-2-yl)-3,4-dihydro-2H-benzo[b][1,4]oxazine-7-sulfonamide]
26 | 6.22 | – | COc1cc(C(F)(F)F)ccc1N1C(=O)[C@H](C)Oc2cc(S(=O)(=O)Nc3nccs3)ccc21 [Example 264, (S)-4-(2-methoxy-4-(trifluoromethyl)phenyl)-2-methyl-3-oxo-N-(thiazol-2-yl)-3,4-dihydro-2H-benzo[b][1,4]oxazine-7-sulfonamide]
27 | 4.92 | – | O=C1COc2cc(S(=O)(=O)Nc3nccs3)ccc2N1c1ccc(C(F)(F)F)cc1F [Example 240, 4-(2-Fluoro-4-(Trifluoromethyl)Phenyl)-3-Oxo-N-(Thiazol-2-Yl)-3,4-Dihydro-2H-Benzo[B][1,4]Oxazine-7-Sulfonamide]
28 | 5.44 | – | O=S(=O)(Nc1nccs1)c1ccc2c(c1)OCCN2c1ccccc1C(O)CO (stereo not drawn) [Example 252, 4-(2-(1,2-dihydroxyethyl)phenyl)-N-(thiazol-2-yl)-3,4-dihydro-2H-benzo[b][1,4]oxazine-7-sulfonamide]
29 | 6.87 | – | COc1ccccc1N1CCOc2cc(S(=O)(=O)Nc3ncns3)ccc21 [Example 238, 4-(2-Methoxyphenyl)-N-(1,2,4-Thiadiazol-5-Yl)-3,4-Dihydro-2H-Benzo[B][1,4]Oxazine-7-Sulfonamide]

Row | SMILES | pIC50 | inhibition at 4.9 µM (HEK293, values marked *, 4.9 μM, read-out: Nav 1.7 PX percent inhibition at 4.9 μM)
30 | COc1cc(C(F)(F)F)ccc1N1CCOc2cc(S(=O)(=O)Nc3nccs3)c(C#N)cc21 [Example 213, 6-Cyano-4-(2-Methoxy-4-(Trifluoromethyl)Phenyl)-N-(Thiazol-2-Yl)-3,4-Dihydro-2H-Benzo[B][1,4]Oxazine-7-Sulfonamide] | 6.34 | –
31 | COc1cc(C(F)(F)F)ccc1N1C(=O)COc2cc(S(=O)(=O)Nc3ncns3)ccc21 [Example 248, 4-(2-Methoxy-4-(Trifluoromethyl)Phenyl)-3-Oxo-N-(1,2,4-Thiadiazol-5-Yl)-3,4-Dihydro-2H-Benzo[B][1,4]Oxazine-7-Sulfonamide] | 6.76 | –
32 | N#Cc1cc(Cl)ccc1N1CCOc2cc(S(=O)(=O)Nc3ccncn3)ccc21 [Example 243, 4-(4-Chloro-2-Cyanophenyl)-N-(Pyrimidin-4-Yl)-3,4-Dihydro-2H-Benzo[B][1,4]Oxazine-7-Sulfonamide] | 5.73 | –
33 | COc1cc(C#N)ccc1N1C(=O)COc2cc(S(=O)(=O)Nc3nccs3)ccc21 [Example 232, 4-(4-Cyano-2-Methoxyphenyl)-3-Oxo-N-(Thiazol-2-Yl)-3,4-Dihydro-2H-Benzo[B][1,4]Oxazine-7-Sulfonamide] | 5.70 | –
